Laboratory results taken from ChEMBL document CHEMBL1201862, “PubChem BioAssay data set” (2004).
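Cultured in 96-well plates, cells were exposed to test compound for 48 hours across five concentrations. At the GI50, growth is halved.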 Activity calls are given as the source filed them. Cut-off read from the data, not from the text of the source: active = GI50 up to about 1.1 µM and inactive = higher.

Key:
Assay in all cases: NCI-60 cell line screen, 48 h
[1] = system: CCRF-CEM
[2] = system: MOLT-4
[3] = system: 786-0
[4] = system: HCC 2998
[5] = system: SF-539
[6] = system: MCF7
[7] = system: SK-OV-3
[8] = system: SR
[9] = system: HCT-116
[10] = system: PC-3
[11] = system: HOP-92
[12] = system: SK-MEL-28
[13] = system: DU-145
[14] = system: LOX IMVI
[15] = system: MDA-MB-435
[16] = system: BT-549
[17] = system: NCI/ADR-RES
[18] = system: HCT-15
[19] = system: OVCAR-8
[20] = system: OVCAR-5

| SMILES | GI50 [1] | GI50 [2] | GI50 [3] | GI50 [4] | GI50 [5] | GI50 [6] | GI50 [7] | GI50 [8] | GI50 [9] | GI50 [10] | GI50 [11] | GI50 [12] | GI50 [13] | GI50 [14] | GI50 [15] | GI50 [16] | GI50 [17] | GI50 [18] | GI50 [19] | GI50 [20] |
| --- | --- | --- | --- | --- | --- | --- | --- | --- | --- | --- | --- | --- | --- | --- | --- | --- | --- | --- | --- | --- |
| CN1CCN(C2=CC(=O)c3c(O)ccc(O)c3C2=O)CC1 | 0.501 µM (active) | 1.01 µM (active) | 1.95 µM (inactive) | 1.82 µM (inactive) | 1.61 µM (inactive) | 0.319 µM (active) | 5.02 µM (inactive) | 1.38 µM (inactive) | 0.208 µM (active) | 0.412 µM (active) | 1.86 µM (inactive) | 1.64 µM (inactive) | 1.75 µM (inactive) | 0.547 µM (active) | 0.188 µM (active) | 1.76 µM (inactive) | 1.04 µM (active) |  |  |  |
| O=c1n(-c2ccccc2)c(=O)n2n1C1CCC2CC1 | > 100 µM (inactive) | > 100 µM (inactive) | > 100 µM (inactive) |  | > 100 µM (inactive) | > 100 µM (inactive) | > 100 µM (inactive) | > 100 µM (inactive) | > 100 µM (inactive) | > 100 µM (inactive) | > 100 µM (inactive) | > 100 µM (inactive) | > 100 µM (inactive) | > 100 µM (inactive) | > 100 µM (inactive) | > 100 µM (inactive) | > 100 µM (inactive) | > 100 µM | > 100 µM (inactive) | > 100 µM (inactive) |
| Cc1ccc([N+](=O)[O-])c2c(NCCCN(C)C)ccnc12 | > 100 µM (inactive) | > 100 µM (inactive) | 44.8 µM (inactive) | 20.3 µM (inactive) | 27.3 µM (inactive) | 39.4 µM (inactive) |  | 66.4 µM (inactive) | 45.6 µM (inactive) | 33.6 µM (inactive) | 56.9 µM (inactive) | > 100 µM (inactive) | > 100 µM (inactive) | 44.2 µM (inactive) | 21.6 µM (inactive) | > 100 µM (inactive) | 66.2 µM (inactive) | 35 µM | 98.4 µM (inactive) | > 100 µM (inactive) |
| CC1(C)OCC2OC3([C@H]4OC(C)(C)O[C@@H]4CO)OC(C)(C)OC3C2O1 (stereo partly drawn) | > 100 µM (inactive) | > 100 µM (inactive) | > 100 µM (inactive) | > 100 µM (inactive) | > 100 µM (inactive) | > 100 µM (inactive) |  | > 100 µM (inactive) | > 100 µM (inactive) | > 100 µM (inactive) | > 100 µM (inactive) | > 100 µM (inactive) | > 100 µM (inactive) | > 100 µM (inactive) | > 100 µM (inactive) | > 100 µM (inactive) | > 100 µM (inactive) | > 100 µM | > 100 µM (inactive) | > 100 µM (inactive) |
| N#CC(NNC(=O)c1c(Cl)c(Cl)c(Cl)c(Cl)c1-c1nc2cc(C(=O)c3ccccc3)ccc2[nH]1)c1ccccc1 (stereo not drawn) | 4.02 µM (inactive) | 3.22 µM (inactive) | 12.2 µM (inactive) |  | 3.18 µM (inactive) | 2.9 µM (inactive) | 13 µM (inactive) | 2.84 µM (inactive) | 10.6 µM (inactive) | 7.14 µM (inactive) | 15 µM (inactive) | 17.8 µM (inactive) | 24.3 µM (inactive) | 9.35 µM (inactive) | 2.82 µM (inactive) | 9.2 µM (inactive) | 3.43 µM (inactive) | 4.74 µM | 23.7 µM (inactive) | 26.5 µM (inactive) |
| Clc1ccccc1-c1nc2cc(C34CC5CC(CC(C5)C3)C4)ccc2[nH]1 | 33 µM (inactive) | 79.8 µM (inactive) | 12.1 µM (inactive) | 49.3 µM (inactive) |  | 11.2 µM (inactive) | 16.1 µM (inactive) | 20.2 µM (inactive) | 55.1 µM (inactive) | 15.1 µM (inactive) | 10.5 µM (inactive) | 20.6 µM (inactive) | 23.2 µM (inactive) | 12.4 µM (inactive) | > 100 µM (inactive) | 20 µM (inactive) | 28.1 µM (inactive) | 41.9 µM | 10.9 µM (inactive) | 17.8 µM (inactive) |
| COC(=O)c1nc(-c2nc(CCNC(=O)OC(C)(C)C)sc2Cl)sc1Cl | 32.2 µM (inactive) | 23.8 µM (inactive) | > 100 µM (inactive) | > 100 µM (inactive) | > 100 µM (inactive) | 52 µM (inactive) | > 100 µM (inactive) | 35.2 µM (inactive) | 60.7 µM (inactive) | 28.1 µM (inactive) | 6.62 µM (inactive) | 70.1 µM (inactive) | > 100 µM (inactive) |  | 92 µM (inactive) | 34.5 µM (inactive) | 32.2 µM (inactive) | 36.3 µM | 35.5 µM (inactive) | > 100 µM (inactive) |
| Cc1c(OCc2cccc3ccccc23)ccc2c(O)cc(=S)oc12 | 22.1 µM (inactive) | 32 µM (inactive) | 41.8 µM (inactive) | 31.4 µM (inactive) | 26.9 µM (inactive) | 45.7 µM (inactive) |  | 28.7 µM (inactive) | 26.7 µM (inactive) | 35.2 µM (inactive) | 27.1 µM (inactive) | 43.6 µM (inactive) | 36.2 µM (inactive) | 22 µM (inactive) | 30.1 µM (inactive) | 30.9 µM (inactive) | 38.2 µM (inactive) | 35.3 µM | 60.4 µM (inactive) | 54.1 µM (inactive) |
| NC(=O)c1csc(C2(O)COC(CO)C2O)n1 (stereo not drawn) | > 100 µM (inactive) |  | > 100 µM (inactive) | > 100 µM (inactive) | > 100 µM (inactive) | > 100 µM (inactive) | > 100 µM (inactive) | > 100 µM (inactive) | > 100 µM (inactive) | > 100 µM (inactive) | > 100 µM (inactive) | > 100 µM (inactive) | > 100 µM (inactive) | > 100 µM (inactive) | > 100 µM (inactive) | > 100 µM (inactive) | > 100 µM (inactive) | > 100 µM | > 100 µM (inactive) | > 100 µM (inactive) |
| O=C1CCCC1CC(CN1CCOCC1)Sc1nnnn1-c1ccccc1 (stereo not drawn) | > 100 µM (inactive) | > 100 µM (inactive) | > 100 µM (inactive) | > 100 µM (inactive) | > 100 µM (inactive) | 18.2 µM (inactive) | > 100 µM (inactive) | > 100 µM (inactive) | > 100 µM (inactive) | > 100 µM (inactive) | > 100 µM (inactive) | > 100 µM (inactive) | 77.4 µM (inactive) | > 100 µM (inactive) | > 100 µM (inactive) | > 100 µM (inactive) | > 100 µM (inactive) |  | > 100 µM (inactive) | 72.6 µM (inactive) |
| Nc1nc(-c2ccccc2/N=N/N2CCCC2)nc2ccccc12 | 3.07 µM (inactive) | 1.16 µM (inactive) | 2.38 µM (inactive) |  | 2.39 µM (inactive) | 3.48 µM (inactive) | 9.1 µM (inactive) | 0.413 µM (active) | 1.02 µM (active) | 3.7 µM (inactive) | 8 µM (inactive) | 12.2 µM (inactive) | 4.93 µM (inactive) | 1.75 µM (inactive) | 2.56 µM (inactive) | 11.8 µM (inactive) | 2.99 µM (inactive) | 2.7 µM | 1.45 µM (inactive) | 1.86 µM (inactive) |
| CN(C)c1ccc(/C=C(\NC(=O)c2ccccc2)C2NC(Cc3c[nH]c4ccccc34)C(=O)O2)cc1 (stereo not drawn) | 8.91 µM (inactive) | 16.6 µM (inactive) | 12.2 µM (inactive) | 6.12 µM (inactive) |  | 6.65 µM (inactive) | > 59.4 µM (inactive) | 41.8 µM (inactive) | 19.2 µM (inactive) | 27.4 µM (inactive) | > 24.1 µM (inactive) | > 100 µM (inactive) | > 100 µM (inactive) | > 24.8 µM (inactive) | 10.8 µM (inactive) | 12.1 µM (inactive) | > 100 µM (inactive) | 14.3 µM | 5.98 µM (inactive) | > 83.6 µM (inactive) |
| C=C[C@]1(O[Si](C)(C)C)C[C@@]2(C(=O)OCC)C(O)C(=O)N3CCc4cc(OC)c(OC)cc4[C@]312 (stereo partly drawn) | > 100 µM (inactive) | > 100 µM (inactive) | > 100 µM (inactive) |  | > 100 µM (inactive) | 90.8 µM (inactive) | > 100 µM (inactive) | > 100 µM (inactive) | > 100 µM (inactive) | 93.8 µM (inactive) | 24.9 µM (inactive) | > 100 µM (inactive) | > 100 µM (inactive) | > 100 µM (inactive) | > 100 µM (inactive) | > 100 µM (inactive) | > 100 µM (inactive) | > 100 µM | > 100 µM (inactive) | > 100 µM (inactive) |
| O=c1c(C(c2cccnc2)c2c(O)oc3cc(O)ccc3c2=O)c(O)oc2cc(O)ccc12 |  | > 100 µM (inactive) | > 100 µM (inactive) | > 100 µM (inactive) | > 100 µM (inactive) | > 100 µM (inactive) | > 100 µM (inactive) | > 100 µM (inactive) | > 100 µM (inactive) | > 100 µM (inactive) | > 100 µM (inactive) | > 100 µM (inactive) | > 100 µM (inactive) | > 100 µM (inactive) | > 100 µM (inactive) | > 100 µM (inactive) | > 100 µM (inactive) | > 100 µM | > 100 µM (inactive) | > 100 µM (inactive) |
| [O-][Cl+3]([O-])([O-])[O-].[O-][Cl+3]([O-])([O-])[O-].c1ccn2c(N3CCOCC3)[n+]3c4ccccc4[n+]4c(N5CCOCC5)n5ccccc5c4c3c2c1 | > 100 µM (inactive) | > 100 µM (inactive) | > 100 µM (inactive) | > 100 µM (inactive) | 65.3 µM (inactive) | 56.1 µM (inactive) |  | 41.3 µM (inactive) | > 100 µM (inactive) | > 100 µM (inactive) | > 100 µM (inactive) | > 100 µM (inactive) | > 100 µM (inactive) | > 100 µM (inactive) | > 100 µM (inactive) | > 100 µM (inactive) | > 100 µM (inactive) | > 100 µM | 41.2 µM (inactive) | > 100 µM (inactive) |
